Results reported in ChEMBL document CHEMBL1212752, “Efficacy of posaconazole in a murine disseminated infection by Candida tropicalis” (2010).
Values after ≈ are worked out from the molar mass of the structure shown. Active and inactive are the calls of the source. The calls are words filed in the database; no cut-off is given here.

Legend:
Candida tropicalis [1] = assay: Antifungal activity against Candida tropicalis FMR 8897 assessed as inhibition of growth by broth dilution method; type: functional
Candida tropicalis [2] = assay: Antifungal activity against Candida tropicalis FMR 10237 infected in immunosuppressed OF1 mouse assessed as prolongation of mouse survival at 50 mg/kg, po qd for 5 days; type: functional, organism-based; parameters: dose 50 mg/kg
Candida tropicalis [3] = assay: Antifungal activity against Candida tropicalis FMR 10237 assessed as inhibition of growth by broth dilution method; type: functional
Candida tropicalis [4] = assay: Antifungal activity against Candida tropicalis FMR 8895 assessed as inhibition of growth by broth dilution method; type: functional
Candida tropicalis [5] = assay: Antifungal activity against Candida tropicalis FMR 10240 assessed as inhibition of growth by broth dilution method; type: functional
Candida tropicalis [6] = assay: Antifungal activity against Candida tropicalis FMR 9726 infected in immunosuppressed OF1 mouse assessed as reduction in fungal tissue burden in mouse kidney at 50 mg/kg, po qd for 5 days; type: functional, organism-based; parameters: dose 50 mg/kg
Candida tropicalis [7] = assay: Antifungal activity against Candida tropicalis FMR 8895 assessed as compound concentration causing =>99% reduction in microbial growth; type: functional
Candida tropicalis [8] = assay: Antifungal activity against Candida tropicalis FMR 9726 assessed as inhibition of growth by broth dilution method; type: functional
Candida tropicalis [9] = assay: Antifungal activity against Candida tropicalis FMR 10239 infected in immunosuppressed OF1 mouse assessed as reduction in fungal tissue burden in mouse kidney at 50 mg/kg, po qd for 5 dayss; type: functional, organism-based; parameters: dose 50 mg/kg
Candida tropicalis [10] = assay: Antifungal activity against Candida tropicalis FMR 9727 infected in immunosuppressed OF1 mouse assessed as reduction in fungal tissue burden in mouse kidney at 50 mg/kg, po qd for 5 days; type: functional, organism-based; parameters: dose 50 mg/kg
Candida tropicalis [11] = assay: Antifungal activity against Candida tropicalis FMR 10237 infected in immunosuppressed OF1 mouse assessed as reduction in fungal tissue burden in mouse spleen at 25 mg/kg, po bid for 5 days; type: functional, organism-based; parameters: dose 25 mg/kg
Candida tropicalis [12] = assay: Antifungal activity against Candida tropicalis FMR 10232 assessed as inhibition of growth by broth dilution method; type: functional
Candida tropicalis [13] = assay: Antifungal activity against Candida tropicalis FMR 9727 infected in immunosuppressed OF1 mouse assessed as prolongation of mouse survival at 25 mg/kg, po bid for 5 days; type: functional, organism-based; parameters: dose 25 mg/kg
Candida tropicalis [14] = assay: Antifungal activity against Candida tropicalis FMR 10237 assessed as compound concentration causing =>99% reduction in microbial growth; type: functional
Candida tropicalis [15] = assay: Antifungal activity against Candida tropicalis FMR 10333 assessed as inhibition of growth by broth dilution method; type: functional
Candida tropicalis [16] = assay: Antifungal activity against Candida tropicalis FMR 10239 assessed as inhibition of growth by broth dilution method; type: functional
Candida tropicalis [17] = assay: Antifungal activity against Candida tropicalis FMR 10238 assessed as inhibition of growth by broth dilution method; type: functional
Candida tropicalis [18] = assay: Antifungal activity against Candida tropicalis FMR 8895 infected in immunosuppressed OF1 mouse assessed as prolongation of mouse survival at 50 mg/kg, po qd for 5 days; type: functional, organism-based; parameters: dose 50 mg/kg
Candida tropicalis [19] = assay: Antifungal activity against Candida tropicalis FMR 8896 assessed as compound concentration causing =>99% reduction in microbial growth; type: functional
Candida tropicalis [20] = assay: Antifungal activity against Candida tropicalis FMR 8895 infected in immunosuppressed OF1 mouse assessed as reduction in fungal tissue burden in mouse spleen at 50 mg/kg, po qd for 5 days; type: functional, organism-based; parameters: dose 50 mg/kg
Candida tropicalis [21] = assay: Antifungal activity against Candida tropicalis FMR 9727 infected in immunosuppressed OF1 mouse assessed as reduction in fungal tissue burden in mouse kidney at 25 mg/kg, po bid for 5 days; type: functional, organism-based; parameters: dose 25 mg/kg
Candida tropicalis [22] = assay: Antifungal activity against Candida tropicalis FMR 10239 infected in immunosuppressed OF1 mouse assessed as prolongation of mouse survival at 25 mg/kg, po bid for 5 days; type: functional, organism-based; parameters: dose 25 mg/kg
Candida tropicalis [23] = assay: Antifungal activity against Candida tropicalis FMR 9726 infected in immunosuppressed OF1 mouse assessed as reduction in fungal tissue burden in mouse kidney at 25 mg/kg, po bid for 5 days; type: functional, organism-based; parameters: dose 25 mg/kg
Candida tropicalis [24] = assay: Antifungal activity against Candida tropicalis FMR 10333 assessed as compound concentration causing =>99% reduction in microbial growth; type: functional
Candida tropicalis [25] = assay: Antifungal activity against Candida tropicalis FMR 10239 infected in immunosuppressed OF1 mouse assessed as reduction in fungal tissue burden in mouse spleen at 50 mg/kg, po qd for 5 days; type: functional, organism-based; parameters: dose 50 mg/kg
Candida tropicalis [26] = assay: Antifungal activity against Candida tropicalis FMR 10237 infected in immunosuppressed OF1 mouse assessed as prolongation of mouse survival at 25 mg/kg, po bid for 5 days; type: functional, organism-based; parameters: dose 25 mg/kg
Candida tropicalis [27] = assay: Antifungal activity against Candida tropicalis FMR 10234 assessed as inhibition of growth by broth dilution method; type: functional
Candida tropicalis [28] = assay: Antifungal activity against Candida tropicalis FMR 10237 infected in immunosuppressed OF1 mouse assessed as reduction in fungal tissue burden in mouse kidney at 50 mg/kg, po qd for 5 days; type: functional, organism-based; parameters: dose 50 mg/kg
Candida tropicalis [29] = assay: Antifungal activity against Candida tropicalis FMR 10237 infected in immunosuppressed OF1 mouse assessed as reduction in fungal tissue burden in mouse spleen at 50 mg/kg, po qd for 5 days; type: functional, organism-based; parameters: dose 50 mg/kg
Candida tropicalis [30] = assay: Antifungal activity against Candida tropicalis FMR 10240 assessed as compound concentration causing =>99% reduction in microbial growth; type: functional
Candida tropicalis [31] = assay: Antifungal activity against Candida tropicalis FMR 10241 assessed as inhibition of growth by broth dilution method; type: functional
Candida tropicalis [32] = assay: Antifungal activity against Candida tropicalis FMR 8898 assessed as inhibition of growth by broth dilution method; type: functional

CC[C@@H]([C@H](C)O)n1ncn(-c2ccc(N3CCN(c4ccc(OC[C@@H]5CO[C@@](Cn6cncn6)(c6ccc(F)cc6F)C5)cc4)CC3)cc2)c1=O [POSACONAZOLE]
MIC50 (Candida tropicalis [1]): 0.06 mg/L (≈ 0.0856 µM)
Activity (Candida tropicalis [2]): Active
MIC50 (Candida tropicalis [3]): 1 mg/L (≈ 1.43 µM)
MIC50 (Candida tropicalis [4]): > 16 mg/L
MIC50 (Candida tropicalis [5]): < 0.03 mg/L
Activity (Candida tropicalis [6]): Active
MFC (Candida tropicalis [7]): > 16 mg/L
MIC50 (Candida tropicalis [8]): 0.5 mg/L (≈ 0.713 µM)
Activity (Candida tropicalis [9]): Active
Activity (Candida tropicalis [10]): Active
Activity (Candida tropicalis [11]): Active
MIC50 (Candida tropicalis [12]): 0.06 mg/L (≈ 0.0856 µM)
Activity (Candida tropicalis [13]): Active
MFC (Candida tropicalis [14]): > 16 mg/L
MIC50 (Candida tropicalis [15]): 0.06 mg/L (≈ 0.0856 µM)
MIC50 (Candida tropicalis [16]): < 0.03 mg/L
MIC50 (Candida tropicalis [17]): 0.06 mg/L (≈ 0.0856 µM)
Activity (Candida tropicalis [18]): Active
MFC (Candida tropicalis [19]): > 16 mg/L
Activity (Candida tropicalis [20]): inactive
Activity (Candida tropicalis [21]): Active
Activity (Candida tropicalis [22]): Active
Activity (Candida tropicalis [23]): Active
MFC (Candida tropicalis [24]): > 16 mg/L
Activity (Candida tropicalis [25]): Active
Activity (Candida tropicalis [26]): Active
MIC50 (Candida tropicalis [27]): 0.06 mg/L (≈ 0.0856 µM)
Activity (Candida tropicalis [28]): Active
Activity (Candida tropicalis [29]): Active
MFC (Candida tropicalis [30]): > 16 mg/L
MIC50 (Candida tropicalis [31]): 0.125 mg/L (≈ 0.178 µM)
MIC50 (Candida tropicalis [32]): 0.125 mg/L (≈ 0.178 µM)
